Laboratory results as given in ChEMBL document CHEMBL4507291 (2021).

Key:
[1] = target: Protein-tyrosine kinase 2-beta (Homo sapiens) (UniProt Q14289); assay: PTK2B (FAK2) Kinase screen; conditions: Compound concentration 1.0 uM
[2] = target: Tyrosine-protein kinase FRK (Homo sapiens) (UniProt P42685); assay: FRK (PTK5) Kinase screen; conditions: Compound concentration 1.0 uM
[3] = target: Serine/threonine-protein kinase Nek6 (Homo sapiens) (UniProt Q9HC98); assay: NEK6 Kinase screen; conditions: Compound concentration 1.0 uM
Serine/threonine-protein kinase Nek6 (Homo sapiens), sequence (Q9HC98 whole entry): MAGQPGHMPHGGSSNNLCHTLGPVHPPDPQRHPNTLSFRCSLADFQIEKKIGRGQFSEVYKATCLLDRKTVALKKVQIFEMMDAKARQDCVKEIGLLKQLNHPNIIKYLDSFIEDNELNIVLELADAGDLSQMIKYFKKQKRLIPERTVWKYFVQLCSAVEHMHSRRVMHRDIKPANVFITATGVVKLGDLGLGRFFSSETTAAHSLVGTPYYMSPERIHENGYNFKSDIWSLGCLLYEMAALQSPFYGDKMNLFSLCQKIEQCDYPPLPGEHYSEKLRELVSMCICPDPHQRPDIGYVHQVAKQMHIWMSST

[4] = target: Proto-oncogene tyrosine-protein kinase Src (Homo sapiens) (UniProt P12931); assay: SRC N1 Kinase screen; conditions: Compound concentration 1.0 uM
Proto-oncogene tyrosine-protein kinase Src (Homo sapiens), sequence (P12931 2-536 limits assumed): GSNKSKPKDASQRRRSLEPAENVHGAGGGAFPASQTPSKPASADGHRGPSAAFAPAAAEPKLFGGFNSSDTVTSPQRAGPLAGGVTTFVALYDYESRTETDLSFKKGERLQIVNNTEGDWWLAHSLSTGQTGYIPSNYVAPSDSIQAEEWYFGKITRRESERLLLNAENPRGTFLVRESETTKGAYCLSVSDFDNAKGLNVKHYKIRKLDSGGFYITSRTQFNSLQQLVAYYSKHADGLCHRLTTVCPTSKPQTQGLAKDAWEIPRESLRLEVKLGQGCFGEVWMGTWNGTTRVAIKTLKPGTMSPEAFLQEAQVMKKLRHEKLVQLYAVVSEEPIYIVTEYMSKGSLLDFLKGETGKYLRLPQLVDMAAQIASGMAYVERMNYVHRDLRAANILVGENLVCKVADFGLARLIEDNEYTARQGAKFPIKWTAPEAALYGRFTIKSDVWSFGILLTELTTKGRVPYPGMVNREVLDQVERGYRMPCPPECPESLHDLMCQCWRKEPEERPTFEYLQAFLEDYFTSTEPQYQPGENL

[5] = target: T1, Inhibitor of nuclear factor kappa-B kinase subunit beta (Homo sapiens) (UniProt O14920); assay: IKBKB (IKK beta) Kinase screen; conditions: Compound concentration 1.0 uM
T1 sequence (whole entry): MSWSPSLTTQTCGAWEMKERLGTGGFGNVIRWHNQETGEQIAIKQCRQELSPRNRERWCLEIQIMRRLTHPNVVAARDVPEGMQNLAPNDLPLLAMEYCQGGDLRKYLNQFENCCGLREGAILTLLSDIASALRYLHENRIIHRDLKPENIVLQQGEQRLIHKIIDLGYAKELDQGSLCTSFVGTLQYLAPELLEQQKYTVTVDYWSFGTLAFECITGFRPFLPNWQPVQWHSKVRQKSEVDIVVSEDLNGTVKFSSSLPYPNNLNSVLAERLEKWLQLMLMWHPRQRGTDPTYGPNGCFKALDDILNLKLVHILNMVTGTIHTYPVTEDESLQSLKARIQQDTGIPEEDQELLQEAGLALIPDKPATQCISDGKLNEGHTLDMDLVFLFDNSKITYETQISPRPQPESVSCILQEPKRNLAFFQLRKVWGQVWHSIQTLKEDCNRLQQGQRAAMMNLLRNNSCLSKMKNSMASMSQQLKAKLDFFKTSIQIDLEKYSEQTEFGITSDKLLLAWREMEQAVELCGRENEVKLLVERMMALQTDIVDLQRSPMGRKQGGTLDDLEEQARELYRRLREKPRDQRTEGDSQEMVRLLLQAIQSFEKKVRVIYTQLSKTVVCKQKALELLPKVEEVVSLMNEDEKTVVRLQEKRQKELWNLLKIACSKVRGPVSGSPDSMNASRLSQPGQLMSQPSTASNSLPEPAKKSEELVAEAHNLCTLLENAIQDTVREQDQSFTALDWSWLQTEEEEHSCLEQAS

[6] = target: Dual specificity protein kinase CLK4 (Homo sapiens) (UniProt Q9HAZ1); assay: CLK4 Kinase screen; conditions: Compound concentration 1.0 uM
[7] = target: Activin receptor type-2B (Homo sapiens) (UniProt Q13705); assay: ACVR2B Kinase screen; conditions: Compound concentration 1.0 uM
Activin receptor type-2B (Homo sapiens), sequence (Q13705 whole entry): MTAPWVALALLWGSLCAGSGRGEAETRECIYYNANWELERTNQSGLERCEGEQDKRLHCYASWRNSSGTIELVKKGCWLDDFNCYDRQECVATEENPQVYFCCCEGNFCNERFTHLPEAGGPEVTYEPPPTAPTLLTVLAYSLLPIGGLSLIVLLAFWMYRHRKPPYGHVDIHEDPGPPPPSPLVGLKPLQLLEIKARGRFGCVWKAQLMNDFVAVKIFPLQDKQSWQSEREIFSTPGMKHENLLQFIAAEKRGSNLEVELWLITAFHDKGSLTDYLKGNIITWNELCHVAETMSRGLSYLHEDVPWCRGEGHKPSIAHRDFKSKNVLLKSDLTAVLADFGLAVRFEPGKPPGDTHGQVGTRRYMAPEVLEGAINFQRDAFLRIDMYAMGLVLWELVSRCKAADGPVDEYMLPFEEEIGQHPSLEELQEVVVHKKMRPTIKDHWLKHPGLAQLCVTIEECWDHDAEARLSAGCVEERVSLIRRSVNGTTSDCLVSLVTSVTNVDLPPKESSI

[8] = tested on: Epidermal growth factor receptor (Homo sapiens), P00533 [L858R,T790M]; assay: EGFR (ErbB1) T790M L858R Kinase screen; conditions: Compound concentration 1.0 uM
[9] = target: Homeodomain-interacting protein kinase 1 (Homo sapiens) (UniProt Q86Z02); assay: HIPK1 (Myak) Kinase screen; conditions: Compound concentration 1.0 uM
Homeodomain-interacting protein kinase 1 (Homo sapiens), sequence (Q86Z02 whole entry, looked up): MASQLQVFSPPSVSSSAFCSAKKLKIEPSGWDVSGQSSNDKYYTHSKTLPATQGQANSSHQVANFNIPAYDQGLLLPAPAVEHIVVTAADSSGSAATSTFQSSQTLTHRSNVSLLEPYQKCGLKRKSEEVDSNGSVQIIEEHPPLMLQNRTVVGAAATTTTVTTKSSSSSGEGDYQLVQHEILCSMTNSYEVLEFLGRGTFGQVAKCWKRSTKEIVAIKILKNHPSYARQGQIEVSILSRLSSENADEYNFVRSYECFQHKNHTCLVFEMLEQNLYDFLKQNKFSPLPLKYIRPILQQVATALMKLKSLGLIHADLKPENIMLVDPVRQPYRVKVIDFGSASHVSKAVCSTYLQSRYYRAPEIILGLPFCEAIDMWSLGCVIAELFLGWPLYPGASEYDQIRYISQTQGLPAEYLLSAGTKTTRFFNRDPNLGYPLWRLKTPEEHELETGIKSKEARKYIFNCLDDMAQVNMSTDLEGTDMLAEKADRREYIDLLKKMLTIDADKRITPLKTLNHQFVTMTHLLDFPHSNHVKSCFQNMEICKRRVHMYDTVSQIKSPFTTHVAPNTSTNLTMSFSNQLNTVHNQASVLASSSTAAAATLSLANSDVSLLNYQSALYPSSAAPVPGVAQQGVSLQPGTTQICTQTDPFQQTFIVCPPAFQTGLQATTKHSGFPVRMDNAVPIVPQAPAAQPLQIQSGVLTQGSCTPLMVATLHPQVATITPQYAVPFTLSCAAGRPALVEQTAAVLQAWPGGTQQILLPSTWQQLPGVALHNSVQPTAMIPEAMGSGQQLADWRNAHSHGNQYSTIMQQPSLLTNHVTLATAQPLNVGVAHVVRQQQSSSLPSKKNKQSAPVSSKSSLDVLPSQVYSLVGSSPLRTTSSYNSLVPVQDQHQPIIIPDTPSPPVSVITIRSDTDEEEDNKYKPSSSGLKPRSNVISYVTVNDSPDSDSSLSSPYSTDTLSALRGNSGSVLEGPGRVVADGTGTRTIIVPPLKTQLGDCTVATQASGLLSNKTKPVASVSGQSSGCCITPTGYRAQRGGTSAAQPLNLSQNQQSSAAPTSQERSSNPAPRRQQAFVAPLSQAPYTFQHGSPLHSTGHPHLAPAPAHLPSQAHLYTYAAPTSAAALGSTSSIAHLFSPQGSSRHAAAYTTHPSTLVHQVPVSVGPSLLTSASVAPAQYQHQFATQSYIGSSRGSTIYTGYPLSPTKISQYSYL

[10] = target: T2, Protein kinase C iota type (Homo sapiens) (UniProt P41743); assay: PRKCI (PKC iota) Kinase screen; conditions: Compound concentration 1.0 uM
T2 sequence (whole entry): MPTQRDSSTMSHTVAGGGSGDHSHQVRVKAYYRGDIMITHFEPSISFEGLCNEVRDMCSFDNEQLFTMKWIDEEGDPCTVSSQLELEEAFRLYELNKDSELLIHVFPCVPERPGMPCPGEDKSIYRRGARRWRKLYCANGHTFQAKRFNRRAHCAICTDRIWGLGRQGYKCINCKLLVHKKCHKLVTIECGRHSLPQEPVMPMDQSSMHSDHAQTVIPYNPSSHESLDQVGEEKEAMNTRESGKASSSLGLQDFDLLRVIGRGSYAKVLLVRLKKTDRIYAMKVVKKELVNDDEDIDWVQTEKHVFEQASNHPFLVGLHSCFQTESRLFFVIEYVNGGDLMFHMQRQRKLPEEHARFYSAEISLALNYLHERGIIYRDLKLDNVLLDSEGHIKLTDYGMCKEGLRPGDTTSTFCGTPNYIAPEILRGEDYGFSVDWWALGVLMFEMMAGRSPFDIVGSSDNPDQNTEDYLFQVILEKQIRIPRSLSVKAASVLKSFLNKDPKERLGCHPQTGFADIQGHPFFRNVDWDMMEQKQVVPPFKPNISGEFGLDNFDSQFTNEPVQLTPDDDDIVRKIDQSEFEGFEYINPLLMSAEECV

[11] = target: Tyrosine-protein kinase Lyn (Homo sapiens) (UniProt P07948); assay: LYN B Kinase screen; conditions: Compound concentration 1.0 uM
Tyrosine-protein kinase Lyn (Homo sapiens), sequence (P07948 2-512 limits assumed): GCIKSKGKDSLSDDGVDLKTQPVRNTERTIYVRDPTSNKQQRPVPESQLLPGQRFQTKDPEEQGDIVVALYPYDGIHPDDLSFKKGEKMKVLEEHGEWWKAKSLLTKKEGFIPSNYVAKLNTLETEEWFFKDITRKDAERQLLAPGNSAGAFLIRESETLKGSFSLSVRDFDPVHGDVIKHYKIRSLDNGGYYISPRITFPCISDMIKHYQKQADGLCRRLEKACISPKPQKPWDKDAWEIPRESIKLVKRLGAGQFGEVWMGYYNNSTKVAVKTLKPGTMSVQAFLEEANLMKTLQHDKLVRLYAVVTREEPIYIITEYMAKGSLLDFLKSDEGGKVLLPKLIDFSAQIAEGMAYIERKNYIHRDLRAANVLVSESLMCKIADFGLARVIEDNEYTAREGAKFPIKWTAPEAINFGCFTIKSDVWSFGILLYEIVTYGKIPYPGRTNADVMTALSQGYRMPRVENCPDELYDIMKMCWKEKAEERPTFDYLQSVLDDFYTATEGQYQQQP

[12] = target: Peroxisome proliferator-activated receptor alpha (Homo sapiens) (UniProt Q07869); assay: PPARalpha Eurofins-Panlabs radioligand binding assay; conditions: Compound concentration 10.0 uM
[13] = target: Death-associated protein kinase 1 (Homo sapiens) (UniProt P53355); assay: DAPK1 Kinase screen; conditions: Compound concentration 1.0 uM
[14] = target: Serine/threonine-protein kinase WNK2 (Homo sapiens) (UniProt Q9Y3S1); assay: WNK2 Kinase screen; conditions: Compound concentration 1.0 uM
[15] = target: T3, Alpha-1A adrenergic receptor (Homo sapiens) (UniProt P35348); conditions: Rattus norvegicus; Compound concentration 10.0 uM
T3 sequence (whole entry): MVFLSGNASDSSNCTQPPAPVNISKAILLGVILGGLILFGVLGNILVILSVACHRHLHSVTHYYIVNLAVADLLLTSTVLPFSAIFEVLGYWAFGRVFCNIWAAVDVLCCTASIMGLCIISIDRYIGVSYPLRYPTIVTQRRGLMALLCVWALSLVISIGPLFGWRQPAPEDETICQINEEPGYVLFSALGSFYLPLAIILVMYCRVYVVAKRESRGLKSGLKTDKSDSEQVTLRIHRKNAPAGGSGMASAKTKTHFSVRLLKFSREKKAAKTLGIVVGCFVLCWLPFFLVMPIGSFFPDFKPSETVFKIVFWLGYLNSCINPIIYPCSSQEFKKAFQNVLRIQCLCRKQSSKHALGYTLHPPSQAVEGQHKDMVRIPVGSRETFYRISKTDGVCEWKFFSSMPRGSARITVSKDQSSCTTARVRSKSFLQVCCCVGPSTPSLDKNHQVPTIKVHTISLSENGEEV

Bos taurus = organism: Bos taurus; assay: Protein Serine/Threonine Kinase, PKA, Non-Selective Eurofins-Panlabs enzyme assay; assay type: protein-complex assay; design: substrate with concentration 370 µg/mL Histone Type III-S, incubation time 15 min, incubation temperature 25 °C; conditions: Compound concentration 10.0 uM

Measured: inhibition

Tyrosine-protein kinase FRK (Homo sapiens), sequence (P42685 whole entry): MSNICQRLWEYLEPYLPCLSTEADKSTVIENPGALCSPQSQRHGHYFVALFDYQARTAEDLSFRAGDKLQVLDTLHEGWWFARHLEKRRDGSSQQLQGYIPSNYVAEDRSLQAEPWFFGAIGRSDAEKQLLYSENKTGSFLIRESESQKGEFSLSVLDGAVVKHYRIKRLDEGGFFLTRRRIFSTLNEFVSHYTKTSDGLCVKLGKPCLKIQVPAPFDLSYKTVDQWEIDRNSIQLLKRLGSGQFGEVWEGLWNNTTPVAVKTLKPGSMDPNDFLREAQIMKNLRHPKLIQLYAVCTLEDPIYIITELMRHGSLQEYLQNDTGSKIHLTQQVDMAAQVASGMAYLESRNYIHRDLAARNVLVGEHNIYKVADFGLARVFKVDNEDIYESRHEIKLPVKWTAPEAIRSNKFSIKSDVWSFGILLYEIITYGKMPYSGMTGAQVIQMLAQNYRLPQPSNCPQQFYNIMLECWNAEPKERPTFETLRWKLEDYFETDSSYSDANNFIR
Protein-tyrosine kinase 2-beta (Homo sapiens), sequence (Q14289 whole entry, looked up): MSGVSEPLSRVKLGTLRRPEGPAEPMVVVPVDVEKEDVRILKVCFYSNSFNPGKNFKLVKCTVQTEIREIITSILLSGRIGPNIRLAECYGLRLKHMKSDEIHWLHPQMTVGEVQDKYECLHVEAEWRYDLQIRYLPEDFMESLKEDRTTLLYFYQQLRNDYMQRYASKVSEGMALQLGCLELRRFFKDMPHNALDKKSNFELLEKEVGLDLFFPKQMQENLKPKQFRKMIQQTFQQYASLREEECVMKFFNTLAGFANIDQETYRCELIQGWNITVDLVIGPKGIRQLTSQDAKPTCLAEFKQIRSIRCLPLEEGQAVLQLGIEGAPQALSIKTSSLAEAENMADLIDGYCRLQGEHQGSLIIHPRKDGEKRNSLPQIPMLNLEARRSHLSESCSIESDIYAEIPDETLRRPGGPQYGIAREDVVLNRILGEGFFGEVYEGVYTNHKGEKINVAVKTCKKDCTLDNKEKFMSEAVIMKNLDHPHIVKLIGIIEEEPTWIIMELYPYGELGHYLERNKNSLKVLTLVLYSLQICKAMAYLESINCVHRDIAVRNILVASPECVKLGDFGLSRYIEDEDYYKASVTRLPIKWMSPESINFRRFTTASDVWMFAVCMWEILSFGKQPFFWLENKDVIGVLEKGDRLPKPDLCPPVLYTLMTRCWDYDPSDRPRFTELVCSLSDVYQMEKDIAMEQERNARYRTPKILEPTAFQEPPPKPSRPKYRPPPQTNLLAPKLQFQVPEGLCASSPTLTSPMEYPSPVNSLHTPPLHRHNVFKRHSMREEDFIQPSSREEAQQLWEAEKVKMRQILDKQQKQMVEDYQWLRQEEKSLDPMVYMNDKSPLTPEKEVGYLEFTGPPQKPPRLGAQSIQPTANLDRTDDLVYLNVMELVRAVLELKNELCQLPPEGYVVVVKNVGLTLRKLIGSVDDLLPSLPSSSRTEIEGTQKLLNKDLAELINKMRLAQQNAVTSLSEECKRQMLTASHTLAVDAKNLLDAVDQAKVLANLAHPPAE

C[C@@H]1CN(c2cc(-c3n[nH]c4ccc(OC5(C)CC5)cc34)ncn2)C[C@H](C)O1 [MLi-2]
inactive: [1] 2.48% | [2] 7.13% | [3] 4.75% | [4] 5.78% | [5] -0.0171% | [6] 80.1% | [7] -1.21% | [8] 2.37% | [9] 3.08% | [10] -0.512% | [11] 3.94% | [12] 10% | [13] -0.645% | [14] -1.69% | [15] 9% | Bos taurus 16%
